Test results published in ChEMBL document CHEMBL4385663, “Discovery of novel PTHR1 antagonists: Design, synthesis, and structure activity relationships” (Bioorg Med Chem Lett, 2019).
Converted amounts (≈) assume the structure as drawn.

What was measured:
[1] = target: T1, Parathyroid hormone/parathyroid hormone-related peptide receptor (Homo sapiens, UniProt Q03431)
T1 sequence (Q03431 whole entry): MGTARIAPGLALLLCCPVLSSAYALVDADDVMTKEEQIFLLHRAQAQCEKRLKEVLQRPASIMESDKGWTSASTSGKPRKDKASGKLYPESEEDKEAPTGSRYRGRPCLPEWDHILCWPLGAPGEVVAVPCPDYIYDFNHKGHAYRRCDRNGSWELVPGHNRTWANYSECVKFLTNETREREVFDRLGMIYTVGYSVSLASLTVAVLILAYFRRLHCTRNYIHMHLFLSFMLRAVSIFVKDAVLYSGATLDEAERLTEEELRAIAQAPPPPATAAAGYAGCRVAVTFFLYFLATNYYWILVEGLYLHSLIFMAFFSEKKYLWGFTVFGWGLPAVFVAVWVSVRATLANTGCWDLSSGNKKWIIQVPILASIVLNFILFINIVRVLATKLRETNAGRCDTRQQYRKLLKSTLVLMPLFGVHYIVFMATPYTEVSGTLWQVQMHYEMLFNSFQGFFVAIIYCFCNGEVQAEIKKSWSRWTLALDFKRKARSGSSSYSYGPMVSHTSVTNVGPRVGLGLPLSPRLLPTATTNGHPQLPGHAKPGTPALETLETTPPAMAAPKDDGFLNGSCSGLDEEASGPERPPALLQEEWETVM
Description: Antagonist activity at human PTHR1 expressed in CHOK1 cells co-expressing Gs/Gq assessed as reduction in human PTH (1 to 34 residues)-induced cAMP accumulation incubated for 30 mins by HTRF assay

physchem = details: 1-octanol/phosphate buffered saline, pH 7.4
Description: Distribution coefficient, log D of the compound in 1-octanol and phosphate buffered saline at pH 7.4

[2] = Half life in Sprague-Dawley rat at 10 mg/kg, po; format: ADME, organism-based; details: in vivo
[3] = Solubility of the compound in JP2 buffer at pH 6.8; format: physicochemical
[4] = Protein binding in rat plasma assessed as unbound fraction; format: ADME, cell-free
[5] = AUClast in Sprague-Dawley rat at 10 mg/kg, po; format: ADME, organism-based; set-up: dose 10 mg/kg, time 0 - last, route oral; details: in vivo
[6] = Oral bioavailability in Sprague-Dawley rat at 10 mg/kg; format: ADME, organism-based; details: in vivo
[7] = Solubility of the compound in JP1 buffer at pH 1.2; format: physicochemical
[8] = Volume of distribution in Sprague-Dawley rat at 1 mg/kg, iv; format: ADME, organism-based; details: in vivo
[9] = Clearance in Sprague-Dawley rat at 1 mg/kg, iv; format: ADME, organism-based; details: in vivo
in vitro = details: rat, liver microsomes
Description: Metabolic stability in rat liver microsomes assessed as parent compound remaining after 0.5 hrs

Structure (SMILES)	IC50 [1] [µM]	other results
CC(C)C1(C)N=C(C2CCCCC2)c2ccc(Cl)cc2N(c2ccc(NCCN)cc2)C1=O (stereo not drawn)	6.8	
NCCNc1ccc(N2C(=O)CN(C3CCCCC3)C(=O)c3ccc(Cl)cc32)cc1	> 100	
CC1(C)N=C(C2CCCCC2)c2ccc(C#N)cc2N(c2ccc(CCCN)cc2)C1=O	7.6	
Cc1ccc2c(c1)N(c1ccc(NCCN)cc1)C(=O)C(C)(C)N=C2C1CCCCC1	6.1	
NCCNc1ccc(N2C(=O)CN(C3CCCCC3)Cc3ccc(Cl)cc32)cc1	> 100	logD (physchem): 1.4
CC1(C)N=C(C2CCCCC2)c2ccc(C#N)cc2N(c2ccc(NCCNC3CCOCC3)cc2)C1=O	0.09	half-life [2]: 4.23 h; solubility [3]: 500 µg/mL (≈ 973 µM); fraction unbound [4]: 0.029; logD (physchem): 2.9; AUC(0-t) [5]: 1940 ng·h/mL; bioavailability [6]: 27%; solubility [7]: 760 µg/mL (≈ 1480 µM); Vd [8]: 4.7 L/kg; clearance [9]: 46.8 mL/min/kg; remaining at 0.5 h (in vitro): 28%
CC(C)N1N=C(C2CCCCC2)c2ccc(Cl)cc2N(c2ccc(CC3=NCCN3)cc2)C1=O	9.4	logD (physchem): 4.2
COc1ccc2c(c1)N(c1ccc(NCCN)cc1)C(=O)C(C)(C)N=C2C1CCCCC1	14	
CC(C)C1N=C(C2CCCCC2)c2ccc(Cl)cc2N(c2ccc(NCCN)cc2)C1=O (stereo not drawn)	14	
CC1(C)N=C(C2CCCCC2)c2ccc(C#N)cc2N(c2ccc(NCCN)cc2)C1=O	0.73	logD (physchem): 2.1
CC1(C)N=C(C2CCCCC2)c2ccc(C#N)cc2N(c2ccc(NCCNC3CCCCC3)cc2)C1=O	2.3	
CN(C)C1N=C(C2CCCCC2)c2ccc(Cl)cc2N(c2ccc(NCCN)cc2)C1=O (stereo not drawn)	44	
NCCNc1ccc(N2C(=O)CN=C(C3CCCCC3)c3ccc(Cl)cc32)cc1	38	logD (physchem): 1.7
CC1(C)N=C(C2CCCCC2)c2ccc(C#N)cc2N(c2ccc(OCCN)cc2)C1=O	4	
CC1(C)N=C(c2ccccc2)c2ccc(Cl)cc2N(c2ccc(NCCN)cc2)C1=O	45	
CC(C)CC1=NC(C)(C)C(=O)N(c2ccc(NCCN)cc2)c2cc(Cl)ccc21	23	
CC1(C)N=C(C2CCCCC2)c2ccc(C#N)cc2N(c2ccc(NCCNC3CCN(S(C)(=O)=O)CC3)cc2)C1=O	0.18	
CC1(C)N=C(C2CCCCC2)c2ccc(C#N)cc2N(c2ccc(NCCCN)cc2)C1=O	4.1	
CC1(C2=NC(C)(C)C(=O)N(c3ccc(NCCN)cc3)c3cc(Cl)ccc32)CCCCC1	16	
